In US6630321B1, “Method for identifying a compound that modulates the function of the gene product of an essential gene” (priority 1999, dated 2003):
Numbered stars: 1 amine (or outer) side, 2 acyl side, 3 side chain; on linkers, the order of the positions; unused ones are H or OH. Square brackets hold non-standard residues; d marks the D form. Peptide text beside a SMILES is read from it. X1 = CC[C@@H](C)[C@@H](O[*:1])C(=O)[*:2]; NMeVal(β-OH) = CN[C@H](C(=O)O)C(C)(C)O; NMeF = CN[C@@H](Cc1ccccc1)C(=O)O; aIle = CC[C@@H](C)[C@H](N)C(=O)O; NMeV = CN[C@H](C(=O)O)C(C)C

Experiments:
GAL1-ERG11 strain = experiment: growth (optical density) hypersensitivity of GAL1-ERG11 strain after promoter switch-off, compared to wild type; format: cell-based, S. cerevisiae; conditions: GAL1 promoter switched OFF (galactose to glucose), final optical density vs wt
Source text: (§1) By “viable” we mean cells that have grown sufficiently so that when gene expression of an essential gene is turned off, meaningful measurements and kinetic analysis may be made. The cells are preferably allowed to grow into early stationary phase by which time a final optical density reading is taken. A reduced optical density compared to no drug or no switchoff controls is interpreted as growth inhibition.
(§2) However no reduction in growth will be observed as long as the amount of active Erg11p is high enough not to be rate limiting for growth (above the threshold, see FIG. 2) In our example the fluconazole concentration is insufficient to reduce Erg11p activity below this threshold. The situation for a GAL1-driven ERG11 gene is different however: At time 0 the gene's engineered promoter is switched from the ON state (because of the high expression of a GAL1 promoter this level is usually higher than for the native promoter) to the OFF state by changing the carbon source in the culture. From this timepoint on no new mRNA is transcribed and—after decay of the mRNA—no new Erg11 protein is being synthesized. Erg11 concentrations are now falling due to the dilution of the enzyme into new daughter cells and protein decay of Erg11p. […] This is reflected by a lower final optical density of the culture. […] Therefore the threshold-line is crossed earlier, as no new Erg11p can be synthesized. Compared to the wild-type cell, this is seen as hypersensitivity (larger reduction in growth in the presence of an identical concentration of drug). Simplified one can explain this as a reduced amount of cell-doublings before rate-limiting conditions occur.
For target and compound evaluation the hypersensitivity has to be specific for certain drug-target combinations. Therfore the method was tested and validated with another unrelated known drug-target combination: The AUR1 gene encodes inositolphosphorylceramide (IPC) synthase, an essential enzyme of the fungal sphingolipid biosynthetic pathway (Nagiec et al, J.Biol.Chem., 1997, 272,15, 9809-9817). […]

GAL1-AUR1 strain = experiment: growth (optical density) hypersensitivity of GAL1-AUR1 strain after promoter switch-off, compared to wild type; format: cell-based, S. cerevisiae; conditions: GAL1 promoter switched OFF (galactose to glucose), final optical density vs wt
Source text: as §1
as §2, with “Compared to the wild-type cell, this is seen as hypersensitivity (larger reduction in growth in the presence of an identical concentration of drug). Simplified one can explain this as a reduced amount of cell-doublings before rate-limiting conditions occur.” left out

[1] = target: Erg11p, lanosterol C-14-demethylase (Saccharomyces cerevisiae, UniProt P10614); conditions: cited from earlier work
[2] = target: T1, inositolphosphorylceramide (IPC) synthase (AUR1) (Saccharomyces cerevisiae, UniProt P36107); conditions: cited from earlier work
T1 sequence (P36107 1-401): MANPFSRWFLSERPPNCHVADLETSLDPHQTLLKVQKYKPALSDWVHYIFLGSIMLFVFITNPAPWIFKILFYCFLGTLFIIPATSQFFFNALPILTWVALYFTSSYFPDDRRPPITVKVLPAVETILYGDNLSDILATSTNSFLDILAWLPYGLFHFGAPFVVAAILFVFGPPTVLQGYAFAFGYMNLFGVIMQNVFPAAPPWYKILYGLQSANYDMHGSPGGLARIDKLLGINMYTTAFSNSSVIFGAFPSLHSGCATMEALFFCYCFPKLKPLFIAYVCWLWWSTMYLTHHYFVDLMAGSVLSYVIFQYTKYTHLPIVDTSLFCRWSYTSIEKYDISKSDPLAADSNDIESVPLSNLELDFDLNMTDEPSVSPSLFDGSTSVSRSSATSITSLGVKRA
T1 sequence (Q06346 1-221 partner): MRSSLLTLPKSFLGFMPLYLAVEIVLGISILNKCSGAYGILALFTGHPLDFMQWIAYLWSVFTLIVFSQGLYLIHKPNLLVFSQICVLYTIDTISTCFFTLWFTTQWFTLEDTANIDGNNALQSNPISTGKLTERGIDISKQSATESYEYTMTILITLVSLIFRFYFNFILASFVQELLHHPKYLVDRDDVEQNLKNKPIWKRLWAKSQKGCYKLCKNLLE

GAL1-ERG1 strain = experiment: growth (optical density) hypersensitivity of GAL1-ERG1 strain after promoter switch-off, compared to wild type; format: cell-based, S. cerevisiae; conditions: GAL1 promoter switched OFF, FIG. 5
Source text: as §1
It follows that the hypersensitive reaction towards an inhibitor of one enzyme in a pathway may be extended to inhibitors of the whole pathway. This is due to the linear arrangement of enzymes in a biochemical cascade of reactions where one enzyme provides substrate for the next. A reduced substrate supply can act synergistically with a reduced enzyme level. Thus the activity of the almost rate-limiting enzyme Erg11p (after switchoff) will be reduced further by withdrawal of its substrate normally provided by Erg1p, squalene epoxidase, another enzyme of the sterol biosynthetic pathway, through several biochemical steps. Erg1p is now inhibited by terbinafine. Any such pathway specific hypersensitivity allows the categorisation of (uncategorised) genes into the same pathway as the switched off gene. To investigate this, we examined Erg1p. […] This pathway-specific analysis tool will be extremely useful for the classification of novel inhibitors (with unknown mode of action).

[3] = target: Erg1p, squalene epoxidase (Saccharomyces cerevisiae, UniProt P32476); conditions: cited from earlier work
Erg1p, squalene epoxidase, sequence (P32476 whole entry): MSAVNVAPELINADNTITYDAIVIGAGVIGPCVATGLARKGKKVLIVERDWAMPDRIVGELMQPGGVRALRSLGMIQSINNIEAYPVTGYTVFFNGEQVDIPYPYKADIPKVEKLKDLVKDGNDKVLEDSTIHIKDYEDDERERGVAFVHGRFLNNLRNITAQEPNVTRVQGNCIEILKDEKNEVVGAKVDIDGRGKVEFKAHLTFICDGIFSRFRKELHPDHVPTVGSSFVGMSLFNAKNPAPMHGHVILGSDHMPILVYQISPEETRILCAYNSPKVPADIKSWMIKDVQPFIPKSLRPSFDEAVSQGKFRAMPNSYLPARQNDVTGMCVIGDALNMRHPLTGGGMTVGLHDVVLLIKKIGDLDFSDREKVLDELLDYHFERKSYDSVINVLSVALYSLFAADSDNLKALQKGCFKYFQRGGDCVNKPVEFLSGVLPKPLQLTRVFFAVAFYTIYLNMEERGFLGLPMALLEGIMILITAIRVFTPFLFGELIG

Erg11p, lanosterol C-14-demethylase, sequence (P10614 whole entry): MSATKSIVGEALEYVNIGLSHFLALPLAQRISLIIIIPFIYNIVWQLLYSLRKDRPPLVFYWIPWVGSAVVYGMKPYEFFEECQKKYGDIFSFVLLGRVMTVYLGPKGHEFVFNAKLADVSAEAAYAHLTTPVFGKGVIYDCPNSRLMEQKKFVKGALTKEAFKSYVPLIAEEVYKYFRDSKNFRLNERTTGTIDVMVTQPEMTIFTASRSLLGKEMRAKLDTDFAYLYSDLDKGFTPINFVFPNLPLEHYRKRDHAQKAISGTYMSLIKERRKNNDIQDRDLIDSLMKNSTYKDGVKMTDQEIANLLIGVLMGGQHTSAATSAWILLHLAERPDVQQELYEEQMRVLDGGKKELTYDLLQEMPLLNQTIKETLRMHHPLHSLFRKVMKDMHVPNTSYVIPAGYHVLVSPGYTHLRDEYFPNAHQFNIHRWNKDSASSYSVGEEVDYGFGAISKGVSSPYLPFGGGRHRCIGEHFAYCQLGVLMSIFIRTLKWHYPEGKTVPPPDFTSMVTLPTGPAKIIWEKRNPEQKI

SMILES | hypersensitivity (larger reduction in growth than wild type at identical drug concentration) (GAL1-ERG11 strain) | hypersensitivity (larger reduction in growth than wild type at identical drug concentration) (GAL1-AUR1 strain) | enzyme inhibition [1] | potency of enzyme inhibition [2] | hypersensitivity (larger reduction in growth than wild type at identical drug concentration) (GAL1-ERG1 strain) | enzyme inhibition [3]
OC(Cn1cncn1)(Cn1cncn1)c1ccc(F)cc1F [fluconazole] | prominent hypersensitive response | neither did GAL1-AUR1 show hypersensitivity | inhibits Erg11p | – | – | –
CC[C@@H](C)[C@@H]1NC(=O)[C@@H]2CCCN2C(=O)[C@H](Cc2ccccc2)N(C)C(=O)[C@H](Cc2ccccc2)NC(=O)[C@H](C(C)C)N(C)C(=O)[C@@H]([C@H](C)CC)OC(=O)[C@H](C(C)(C)O)N(C)C(=O)[C@H](CC(C)C)NC(=O)[C@H](C(C)C)N(C)C1=O [aureobasidinA] (cyclo(F[NMeF]P[aIle][NMeV]L[NMeVal(β-OH)][X1][NMeV])) | no increased sensitivity | prominent hypersensitive response | – | sub nanomolar potency | – | –
CN(C/C=C/C#CC(C)(C)C)Cc1cccc2ccccc12 [terbinafine] | as hypersuscepible to terbinafine as GAL1-ERG1 | – | Erg11p is not | – | hypersuscepible | inhibited
